Ends that are not written are not given here.

For one experiment, the target named is T1, integrin αVβ6 (Homo sapiens, UniProt P06756+P18564).
T1 construct: purchased R&D System; Minneapolis, MN, USA
Briefly: Competition study, 125ISIB-echistatin vs ligands on coated αVβ6. In kind it is binding. As to conditions: competition with 125ISIB-echistatin on α5β1, αVβ1, αVβ3, αVβ5, αVβ6. The procedure:
A competition study was performed to investigate the interaction of VTN(381–397 a.a.) with five different integrins. Radiolabeled echistatin, a disintegrin known to bind integrin receptors, was used as a tracer for the binding assays. Lyophilized echistatin was provided by Bachem (Bubendorf, Switzerland) and radiolabeled by conjugation with a radioiodinated benzoate (^125ISIB) to the epsilon amino group of lysine side chains. For the five integrins, α5β1, αVβ1, αVβ3, αVβ5, and αVβ6 (R&D System; Minneapolis, MN, USA), a solution at 1.8 µg/mL was prepared with integrin-binding buffer (IBB; 20 mM Tris pH 7.4, 150 mM NaCl, 2 mM CaCl2, 1 mM MgCl2, 1 mM MnCl2). Nunc Maxisorp Module plates were coated overnight at 4 °C with integrin complex at 1.8 µg/mL. After the wells were washed with sample buffer (IBB, 0.5% BSA), blocking solution (IBB, 2% BSA) was added, and the microplate was incubated for 2 h at room temperature. The wells were then washed three times with IBB/0.5% BSA. Then, ^125ISIB-echistatin was diluted in sample buffer to fixed concentrations of 4, 4, 8, 8, and 20 nM for α5β1, αVβ1, αVβ3, αVβ5, and αVβ6 competition studies, respectively. The ^125ISIB-echistatin was mixed with sample buffer at a ratio of 1:1 (total binding = control well) or with increasing concentrations of ligands (Supplementary information SI1) [complete VTN, VTN(381–397 a.a.), VTN(365–381 a.a.)] at a ratio 1:1 and added to wells in duplicate. We used 1,4,7-triazacyclononane-1,4,7-triacetic acid (NOTA) as a negative control. […] After rinsing, bound radioactivity was quantified using a gamma counter. The percentage of relative binding of radiolabeled echistatin was calculated as follows: radioactivity in the test well*100/radioactivity in the reference well. […] For comparison of the potency of ligands in inhibiting bound ^125ISIB-echistatin for different integrin complexes, the half-maximal inhibitory concentration (IC50) was calculated. The IC50 value was determined by constructing a dose–response curve and examining the effect of different concentrations of ligands on ^125ISIB-echistatin binding. […]
To determine if VTN(381–397 a.a.) could interact with integrins, we investigated its ability to compete with radiolabeled echistatin for binding to five different integrin complexes: α5β1, αVβ1, αVβ3, αVβ5 and αVβ6. […] First, the binding affinity of echistatin to the five integrins was measured by determining the equilibrium dissociation constant (KD). […] The fixed concentration of radiolabeled echistatin was determined according to its KD value. For each ligand concentration, the relative binding of ^125ISIB-echistatin to coated integrins was then measured, and values were plotted versus the logarithm of ligand concentration.

A further experiment has as its system β3 phosphorylation. The settings on record: through binding to αVβ3; ref [32]; cited from earlier work. The source says:
(§1) In this study, we started to move towards a functional investigation of the role of VTN(381–397 a.a.) in OA. VTN is known to interact with integrin receptors by its RGD motif, which is positioned far upstream from VTN(381–397 a.a.) on the N-terminal end of VTN. However, Maile and colleagues also previously described a second integrin-binding site located within the HBD between amino acids 365 and 381[32],[33]. […] Considering that the fragment VTN(381–397 ...

A further experiment relates to αVβ3. As to conditions: ref [32]; cited from earlier work.
Text: as §1

The subject of a further experiment is α-SMA in human FLSs. The experiment is described as follows: Expression of α-SMA in FLSs by western blot. In kind it is cell-based. The settings on record: TGF-β1 10 ng/mL, 7 days, OA FLSs (n = 5), western blot normalized to Hsp90. The procedure: Finally, for analysis of the expression of α-SMA, FLSs (n = 5) were stimulated with VTN(381–397 a.a.) (10, 25, 50, 100 ng/mL) with or without TGF-β1 (10 ng/mL) for 7 days.
The expression of αV and β6 subunits and α-SMA in FLSs was evaluated by western blot analysis. Cells were scraped from plates and lysed with lysis buffer (25 mM HEPES, 150 mM NaCl, 0.5% Triton, 10% glycerol, 1 mM dithiothreitol) containing phosphatase inhibitors (25 mM β-glycerophosphate, 1 mM Na3VO4, and 1 mM NaF) and complete protease inhibitor mixture (Roche Applied Science; Penzberg, Germany). Total proteins were separated by 10% SDS–PAGE gels (12% for α-SMA) and transferred onto PVDF membranes. The membranes were then incubated with anti-αV polyclonal antibody (1:250 dilution) (Cell Signaling Technology; Boston, MA, USA), anti-β6 polyclonal antibody (1:1000 dilution) (Abcam; Cambridge, UK) or anti-α-SMA monoclonal antibody (Agilent; Santa Clara, CA, USA; 1:1000 dilution). […] Data were analyzed by paired Wilcoxon test; a p-value < 0.05 was considered statistically significant. […]
FLSs were stimulated with VTN(381–397 a.a.) with or without TGF-β1 to evaluate the effect on the expression of the fibrotic marker α-SMA (Fig. 5). […] The results in Fig. 5 are expressed as the ratio of the normalized optical density vs. the control and are shown as the mean (±SEM).
A general note: Immunoblotting shows a protein as a band on a membrane.

The test system of experiment [1] is β6 integrin subunit expression, human fibroblast-like synoviocytes (FLSs). The experiment is described as follows: β6 subunit expression in FLSs by western blot after stimulation. In kind it is cell-based. The settings on record: TGF-β1 10 ng/mL, 3 or 7 days, n = 12, OA FLSs, western blot normalized to GAPDH, paired Wilcoxon, p-value ≤ 0.01. Here is the method:
Synovial membranes were obtained from 22 OA patients (14 females, 8 males; mean age 69.8 ± 9.6 years, BMI 30.9 ± 6.8) during knee replacement, and primary synovial fibroblasts were isolated as explained previously. The research ethics committee of CHU de Liege (Belgium) approved the study, and the patient gave informed consent to allow research procedures on samples. Human fibroblast-like synoviocytes (FLSs) were then cultured in DMEM supplemented with 10% FBS, 1% Pen/Strep, and 1% L-glutamine (all from Lonza; Basel, Switzerland) at 37 °C in an atmosphere of 5% CO2. In a plate, 5 × 10^4 FLSs were stimulated with different compounds to analyze the modulation of αVβ6: (i) TGF-β1, TNF-α, IL-1β, or IL-6 were used for 3 or 7 days at a concentration of 10 ng/mL; (ii) among the danger-associated molecular patterns, high-mobility group box 1 (HMGB1) was tested at 10, 50, and 100 ng/mL for 3 days, while S100A9 and S100A12 were tested at 100 and 200 ng/mL for 3 days or 24 h; (iii) advanced glycation end product (AGE-BSA) was tested at 50, 100, and 200 μg/mL for 3 days or 24 h; (iv) prednisolone and dexamethasone were used at 1 μM for 3 or 7 days; and (v) menadione or H2O2 was used to induce oxidative stress at 25–50–100 μM (3 h) and 100–200–400 μM (2 h), respectively, without FBS in the medium.
The expression of αV and β6 subunits and α-SMA in FLSs was evaluated by western blot analysis. Cells were scraped from plates and lysed with lysis buffer (25 mM HEPES, 150 mM NaCl, 0.5% Triton, 10% glycerol, 1 mM dithiothreitol) containing phosphatase inhibitors (25 mM β-glycerophosphate, 1 mM Na3VO4, and 1 mM NaF) and complete protease inhibitor mixture (Roche Applied Science; Penzberg, Germany). Total proteins were separated by 10% SDS–PAGE gels (12% for α-SMA) and transferred onto PVDF membranes. The membranes were then incubated with anti-αV polyclonal antibody (1:250 dilution) (Cell Signaling Technology; Boston, MA, USA), anti-β6 polyclonal antibody (1:1000 dilution) (Abcam; Cambridge, UK) or anti-α-SMA monoclonal antibody (Agilent; Santa Clara, CA, USA; 1:1000 dilution). HRP-conjugated anti-rabbit antibody (1:1000 dilution) (Cell Signaling Technology) was used as the secondary antibody. Immunoblots were developed using the ECL chemiluminescent detection system. Rabbit anti-glyceraldehyde 3-phosphate dehydrogenase (GAPDH) (Merck) or rabbit anti-heat shock protein 90 (Hsp90; Santa Cruz) was used as loading controls at a dilution of 1:10,000 or 1:200, respectively. Values of optical intensity were normalized to GAPDH or Hsp90 levels. Data were analyzed by paired Wilcoxon test; a p-value < 0.05 was considered statistically significant. Statistical analysis was performed with GraphPad Prism 6 software (San Diego, CA, USA).
IL-1β 10 ng/mL 3 days IL-6 10 ng/mL 3 daysIL-6 Prednisolone 1µM 3 daysPrednisolone
0.0 control IL-6 0.0 control PRE
Dexamethasone 1µM 3 daysDexamethasone TNF-α 10 ng/mL 3 days AGE 50 µg/mL 24 h

T1 sequence (P06756 31-992 limits assumed): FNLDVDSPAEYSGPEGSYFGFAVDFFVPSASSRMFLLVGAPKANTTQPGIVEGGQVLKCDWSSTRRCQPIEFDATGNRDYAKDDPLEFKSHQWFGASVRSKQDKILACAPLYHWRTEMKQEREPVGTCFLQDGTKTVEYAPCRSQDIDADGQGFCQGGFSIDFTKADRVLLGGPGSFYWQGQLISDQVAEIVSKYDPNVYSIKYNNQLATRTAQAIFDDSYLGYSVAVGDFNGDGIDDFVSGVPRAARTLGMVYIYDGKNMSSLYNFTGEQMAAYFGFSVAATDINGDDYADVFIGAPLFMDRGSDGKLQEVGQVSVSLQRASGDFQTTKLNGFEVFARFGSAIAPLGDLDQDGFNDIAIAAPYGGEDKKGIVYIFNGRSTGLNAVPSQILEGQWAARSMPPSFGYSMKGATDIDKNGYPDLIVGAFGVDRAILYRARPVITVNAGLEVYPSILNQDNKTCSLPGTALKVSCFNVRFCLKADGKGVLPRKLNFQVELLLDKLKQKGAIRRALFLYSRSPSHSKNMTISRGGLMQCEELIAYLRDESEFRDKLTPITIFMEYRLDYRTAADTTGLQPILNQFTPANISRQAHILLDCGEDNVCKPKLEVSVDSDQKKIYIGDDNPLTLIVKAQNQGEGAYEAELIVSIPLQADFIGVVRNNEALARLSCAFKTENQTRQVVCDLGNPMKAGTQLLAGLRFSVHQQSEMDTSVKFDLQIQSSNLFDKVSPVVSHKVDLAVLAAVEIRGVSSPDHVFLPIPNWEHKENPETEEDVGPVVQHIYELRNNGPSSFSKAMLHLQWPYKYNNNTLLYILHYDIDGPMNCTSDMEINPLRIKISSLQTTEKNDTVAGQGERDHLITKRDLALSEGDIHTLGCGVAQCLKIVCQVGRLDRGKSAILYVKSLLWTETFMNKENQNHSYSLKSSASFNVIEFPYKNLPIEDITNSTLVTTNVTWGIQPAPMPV
T1 sequence (P18564 22-707 limits assumed): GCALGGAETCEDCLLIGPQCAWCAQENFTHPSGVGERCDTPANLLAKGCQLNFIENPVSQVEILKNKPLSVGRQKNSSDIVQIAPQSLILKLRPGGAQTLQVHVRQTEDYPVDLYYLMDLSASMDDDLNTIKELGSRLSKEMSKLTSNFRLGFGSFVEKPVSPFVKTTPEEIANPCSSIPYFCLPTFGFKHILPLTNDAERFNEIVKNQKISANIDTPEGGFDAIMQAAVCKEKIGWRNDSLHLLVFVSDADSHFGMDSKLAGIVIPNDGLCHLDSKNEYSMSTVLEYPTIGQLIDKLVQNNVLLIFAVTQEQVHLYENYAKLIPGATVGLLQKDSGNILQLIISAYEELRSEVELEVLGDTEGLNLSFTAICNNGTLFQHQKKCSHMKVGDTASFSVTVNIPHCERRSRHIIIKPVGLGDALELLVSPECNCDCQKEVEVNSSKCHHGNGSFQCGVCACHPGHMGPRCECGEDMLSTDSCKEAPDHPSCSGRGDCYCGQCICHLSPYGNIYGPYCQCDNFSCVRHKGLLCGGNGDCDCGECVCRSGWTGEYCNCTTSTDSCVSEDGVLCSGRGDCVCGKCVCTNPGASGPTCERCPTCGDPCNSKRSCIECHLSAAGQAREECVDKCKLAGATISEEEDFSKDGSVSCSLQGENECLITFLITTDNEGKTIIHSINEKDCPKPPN

LAKKQRFRHRNRKGYRS [VTN(365–381 a.a.)]: the “integrin binding specificity” value at integrin αVβ6 was “only showed a high affinity for integrin αVβ6”. The “effect on β3 phosphorylation” value in the experiment on β3 phosphorylation is given as “its binding was sufficient to enhance β3 phosphorylation”. Moreover, the “interaction with αVβ3” value in the experiment with αVβ3 is listed as “could interact with αVβ3”.

In the case of TGF-β1: profibrotic mediator, in the experiment on α-SMA in human FLSs, the “effect on α-SMA” value is on record as “upregulated the content of the fibrotic marker α-SMA”. Further, the “effect on β6 subunit expression” value in experiment [1] is reported as “significantly increased β6 expression”.

Source of the values: PMC8080589, “Modulation of αVβ6 integrin in osteoarthritis-related synovitis and the interaction with VTN(381–397 a.a.) competing for TGF-β1 activation” (Experimental & Molecular Medicine, 2021).
